Patent US20120059162A1, “FUSED IMIDAZOLE DERIVATIVE HAVING TTK INHIBITORY ACTION” (Oncotherapy Science, Inc., priority 2009, published 2012)
Read-outs that look alike come from different tables or passages of the source.

How the values were obtained:
TTK = target: T1, TTK (Homo sapiens, UniProt P33981); assay: TTK assay: screening of TTK kinase activity suppressing action using p38 MAPK peptide; format: biochemical; conditions: read-out: TTK IC50
T1 sequence (P33981 1-857): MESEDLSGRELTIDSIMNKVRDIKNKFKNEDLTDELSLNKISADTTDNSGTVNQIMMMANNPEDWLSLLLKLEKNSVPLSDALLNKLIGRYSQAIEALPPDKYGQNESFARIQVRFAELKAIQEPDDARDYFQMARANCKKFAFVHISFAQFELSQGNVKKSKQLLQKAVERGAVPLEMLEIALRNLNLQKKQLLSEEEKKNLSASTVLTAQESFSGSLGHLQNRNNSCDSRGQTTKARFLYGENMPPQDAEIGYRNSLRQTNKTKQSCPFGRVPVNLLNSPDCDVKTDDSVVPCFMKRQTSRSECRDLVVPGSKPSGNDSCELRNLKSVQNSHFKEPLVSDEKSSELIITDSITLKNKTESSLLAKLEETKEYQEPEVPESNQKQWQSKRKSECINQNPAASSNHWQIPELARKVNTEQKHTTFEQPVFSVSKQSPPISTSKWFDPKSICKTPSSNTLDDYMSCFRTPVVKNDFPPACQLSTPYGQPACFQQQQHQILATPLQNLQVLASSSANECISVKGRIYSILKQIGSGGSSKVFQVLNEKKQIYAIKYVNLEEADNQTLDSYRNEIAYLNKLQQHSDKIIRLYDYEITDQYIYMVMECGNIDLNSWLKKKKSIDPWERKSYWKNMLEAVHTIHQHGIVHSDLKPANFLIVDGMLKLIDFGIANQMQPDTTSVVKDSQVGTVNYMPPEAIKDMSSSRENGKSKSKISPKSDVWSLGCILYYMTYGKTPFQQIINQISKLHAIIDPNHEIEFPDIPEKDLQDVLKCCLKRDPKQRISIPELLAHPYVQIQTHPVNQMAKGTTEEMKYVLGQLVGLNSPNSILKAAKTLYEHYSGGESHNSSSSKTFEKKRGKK
In short: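 TTK (4 μg/ml in enzyme solution) mixed with p38 MAPK peptide and ATP (each 60 μM in substrate solution) in Tris-HCl pH 7.5 with MgCl2, DTT, Na3VO4, β-glycerophosphate, BSA. Reaction aliquot captured on NeutrAvidin plate, detected with Eu-labelled anti-mouse IgG by time-resolved fluorescence; inhibition relative to no-compound signal.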

A549 = A549 assay: screening of cancer cell growth inhibiting compound; format: cell-based; conditions: Homo sapiens, A549 cells, read-out: A549 IC50
In short: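 A549 cells (1×10^4/ml) in D-MEM with 10% FBS were pre-incubated one day at 37 °C, then exposed to compound dilutions for three further days. Viable cell number read by WST-8 (1–4 hours), absorbance 450 nm (reference 620 nm); inhibition calculated relative to untreated wells.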

| Structure (SMILES) | IC50 (TTK; p38 MAPK peptide substrate) | IC50 (A549; 72 h, three days, WST-8) | IC50 (TTK) | IC50 (A549; values given as IC50 intervals) |
| --- | --- | --- | --- | --- |
| CC(Nc1cc(NCC2CCOCC2)c2ncc(-c3ccc(C(=O)NC4CC4)cc3)n2n1)C(F)(F)F (stereo not shown) [Example 2-61] | 5.1 nM | ≤ 50 nM | – | – |
| CC(C)(C)Oc1cc(NCC2CCOCC2)c2ncc(-c3ccc(C(=O)NC4CC4)cc3)n2n1 [Example 2-182] | – | – | 8.4 nM | 50 to 500 nM |
| O=C(NC1CC1)c1ccc(-c2cnc3c(NCC4CCOCC4)cc(OC4CCC(C(F)(F)F)CC4)nn23)cc1 (stereo not shown) [Example 2-186] | – | – | 6.8 nM | 500 to 1000 nM |
| CN1CCC(CNc2cc(NC3CCCCC3)nn3c(-c4ccc(C(=O)NC5CC5)cc4)cnc23)CC1 [Example 2-126] | 23.6 nM | 50 to 500 nM | – | – |
| CC1(Nc2cc(NCC3CCOCC3)c3ncc(-c4ccc(C(=O)NC5CC5)cc4)n3n2)CCOCC1 [Example 2-79] | 5.9 nM | 50 to 500 nM | – | – |
| CCC(C)CNc1cc(NCC2CCOCC2)c2ncc(-c3ccc(C(=O)NC4CC4)cc3)n2n1 (stereo not shown) [Example 2-59] | 5.2 nM | 50 to 500 nM | – | – |
| Cc1ccc(Oc2cc(NCC3CCOCC3)c3ncc(-c4ccc(C(=O)NC5CC5)cc4)n3n2)cc1 [Example 2-103] | 4.4 nM | 50 to 500 nM | – | – |
| O=C(NC1CC1)c1ccc(-c2cnc3c(NCC4CCOCC4)cc(N4CCCCC4)nn23)cc1 [Example 2-12] | 8.4 nM | 50 to 500 nM | – | – |
| O=C(NC1CC1)c1ccc(-c2cnc3c(NCC4CCCCC4)cc(NC4CCCCC4)nn23)cc1 [Example 2-125] | 8.6 nM | 50 to 500 nM | – | – |
| O=C(NC1CC1)c1ccc(-c2cnc3c(NCC4CCOCC4)cc(NC4CCC(F)(F)CC4)nn23)cc1 [Example 2-67] | 3.7 nM | 50 to 500 nM | – | – |
| N#Cc1ccc(Oc2cc(NCC3CCOCC3)c3ncc(-c4ccc(C(=O)NC5CC5)cc4)n3n2)cc1 [Example 2-177] | – | – | 14.3 nM | 50 to 500 nM |
| O=C(NC1CC1)c1ccc(-c2cnc3c(NCCCCO)cc(NC4CCCCC4)nn23)cc1 [Example 2-130] | 9.7 nM | 50 to 500 nM | – | – |
| O=C(NC1CC1)c1ccc(-c2cnc3c(NCC(F)F)cc(NC4CCCCC4)nn23)cc1 [Example 2-144] | 3.5 nM | 50 to 500 nM | – | – |
| N#CC1CCN(c2cc(NCC3CCOCC3)c3ncc(-c4ccc(C(=O)NC5CC5)cc4)n3n2)CC1 [Example 2-23] | 8.8 nM | 50 to 500 nM | – | – |
| O=C(NC1CC1)c1ccc(-c2cnc3c(NCC4CCOCC4)cc(CC4CCCC4)nn23)cc1 [Example 2-210] | – | – | 20.3 nM | 1000 to 10000 nM |
| CC1(Nc2cc(NCC3CCOCC3)c3ncc(-c4ccc(C(=O)NC5CC5)cc4)n3n2)CCCC1 [Example 2-75] | 3.6 nM | ≤ 50 nM | – | – |
| O=C(NC1CC1)c1ccc(-c2cnc3c(NCC4CCOCC4)cc(OC4CCCC4)nn23)cc1 [Example 2-173] | – | – | 5.4 nM | 50 to 500 nM |
| O=C(NC1CC1)c1ccc(-c2cnc3c(OCC4CCOCC4)cc(NC4CCCCC4)nn23)cc1 [Example 2-89, 4-(6-(Cyclohexylamino)-8-((tetrahydro-2H-pyran-4-yl)methoxy)imidazo[1,2-b]pyridazin-3-yl)-N-cyclopropylbenzamide] | 5 nM | 50 to 500 nM | – | – |
| CCC(C)Nc1cc(NC2CCCCC2)nn2c(-c3ccc(C(=O)NC4CC4)cc3)cnc12 (stereo not shown) [Example 2-143] | 19.8 nM | 500 to 1000 nM | – | – |
| O=C(NC1CC1)c1ccc(-c2cnc3c(NCC4CCOCC4)cc(OC4C5CC6CC(C5)CC4C6)nn23)cc1 (stereo not shown) [Example 2-191] | – | – | 3.9 nM | 50 to 500 nM |
| O=C(NC1CC1)c1ccc(-c2cnc3c(NCC4CCOCC4)cc(NC4CCOCC4)nn23)cc1 [Example 2-13] | 5.9 nM | 50 to 500 nM | – | – |
| O=C(NC1CC1)c1ccc(-c2cc(NCC3CCOCC3)c3ncc(-c4ccc(C(=O)NC5CC5)cc4)n3n2)cc1 [Example 2-6, 4,4′-(8-((Tetrahydro-2H-pyran-4-yl)methylamino)imidazo[1,2-b]pyridazine-3,6-diyl)bis(N-cyclopropylbenzamide)] | 11.9 nM | 50 to 500 nM | – | – |
| O=C(NC1CC1)c1ccc(-c2cnc3c(NCC4CCOCC4)cc(C4CCNCC4)nn23)cc1 [Example 2-212] | – | – | 23.1 nM | 1000 to 10000 nM |
| O=C(NC1CC1)c1ccc(-c2cnc3c(NCC4CCOCC4)cc(N4CCCC4CO)nn23)cc1 (stereo not shown) [Example 2-62] | 8.7 nM | 50 to 500 nM | – | – |

| Structure (SMILES) | IC50 (TTK; p38 MAPK peptide substrate) | IC50 (A549; 72 h, three days, WST-8) | IC50 (TTK) | IC50 (A549; values given as IC50 intervals) |
| --- | --- | --- | --- | --- |
| O=C(NC1CC1)c1ccc(-c2cnc3c(NCC4CCOCC4)cc(CC4CCCCC4)nn23)cc1 [Example 2-208] | – | – | 7.1 nM | 50 to 500 nM |
| O=C(NC1CC1)c1ccc(-c2cnc3c(NCC4CCOCC4)cc(C=C4CCCCC4)nn23)cc1 [Example 2-207] | – | – | 5.7 nM | 500 to 1000 nM |
| CN(c1cc(NCC2CCOCC2)c2ncc(-c3ccc(C(=O)NC4CC4)cc3)n2n1)C1CCCCC1 [Example 2-17] | 3.1 nM | ≤ 50 nM | – | – |
| CC(C)Oc1cc(NCC2CCOCC2)c2ncc(-c3ccc(C(=O)NC4CC4)cc3)n2n1 [Example 2-178] | – | – | 7.1 nM | 50 to 500 nM |
| O=C(NC1CC1)c1ccc(-c2cnc3c(NCC4CCSCC4)cc(NC4CCCCC4)nn23)cc1 [Example 2-131] | 5.5 nM | 50 to 500 nM | – | – |
| O=C(NC1CC1)c1ccc(-c2cnc3c(NCC4CCOCC4)cc(NC(=O)C4CCCCC4)nn23)cc1 [Example 2-36] | 44.2 nM | 1000 to 10000 nM | – | – |
| CC(C)ONc1cc(NC2CCCCC2)nn2c(-c3ccc(C(=O)NC4CC4)cc3)cnc12 [Example 2-161] | 5.6 nM | 500 to 1000 nM | – | – |
| O=C(NC1CC1)c1ccc(-c2cnc3c(NCC4CCOCC4)cc(NC4CCCC4)nn23)c(F)c1 [Example 2-227] | – | – | 3.5 nM | 50 to 500 nM |
| CC1CCCCC1Nc1cc(NCC2CCOCC2)c2ncc(-c3ccc(C(=O)NC4CC4)cc3)n2n1 (stereo not shown) [Example 2-63] | 2.9 nM | ≤ 50 nM | – | – |
| CCC(C)CNc1cc(NC2CCCCC2)nn2c(-c3ccc(C(=O)NC4CC4)cc3)cnc12 (stereo not shown) [Example 2-137] | 7.3 nM | 50 to 500 nM | – | – |
| NC1CCCCC1Nc1cc(NCC2CCOCC2)c2ncc(-c3ccc(C(=O)NC4CC4)cc3)n2n1 (stereo not shown) [Example 2-71] | 9.4 nM | 1000 to 10000 nM | – | – |
| O=C(NC1CC1)c1ccc(-c2nnc3c(NCC4CCOCC4)cc(NC4CCCC4)nn23)cc1 [Example 3-3, 4-(6-(Cyclopentylamino)-8-((tetrahydro-2H-pyran-4-yl)methylamino)-[1,2,4]triazolo[4,3-b]pyridazin-3-yl)-N-cyclopropylbenzamide] | – | – | 145 nM | 1000 to 10000 nM |
| COc1cccc(Oc2cc(NCC3CCOCC3)c3ncc(-c4ccc(C(=O)NC5CC5)cc4)n3n2)c1 [Example 2-109] | 3.3 nM | 50 to 500 nM | – | – |
| CC(C)(Nc1cc(NCC2CCOCC2)c2ncc(-c3ccc(C(=O)NC4CC4)c(Cl)c3)n2n1)C(F)(F)F [Example 2-220] | – | – | 3.9 nM | ≤ 50 nM |
| CCCNc1cc(NC2CCCCC2)nn2c(-c3ccc(C(=O)NC4CC4)cc3)cnc12 [Example 2-141] | 7 nM | 50 to 500 nM | – | – |
| O=C(NC1CC1)c1ccc(-c2cnc3c(NC[C@H]4CC[C@H](O)CC4)cc(NC4CCCCC4)nn23)cc1 [Example 2-164] | 3.3 nM | 50 to 500 nM | – | – |
| O=C(NC1CC1)c1ccc(-c2cnc3c(NCC4CCOCC4)c(Cl)c(OC4CCCC4)nn23)cc1 [Example 2-216] | – | – | 2.7 nM | 50 to 500 nM |
| O=C(NC1CC1)c1ccc(-c2cnc3c(NCc4nccs4)cc(NC4CCCCC4)nn23)cc1 [Example 2-160] | 3.1 nM | 50 to 500 nM | – | – |
| CCCC(C)Nc1cc(NCC2CCOCC2)c2ncc(-c3ccc(C(=O)NC4CC4)cc3)n2n1 (stereo not shown) [Example 2-58] | 5.5 nM | 50 to 500 nM | – | – |
| CC(Oc1cc(NCC2CCOCC2)c2ncc(-c3ccc(C(=O)NC4CC4)cc3)n2n1)C(F)(F)F (stereo not shown) [Example 2-184] | – | – | 5.6 nM | 50 to 500 nM |
| CC(C)(C)CNc1cc(NC2CCCCC2)nn2c(-c3ccc(C(=O)NC4CC4)cc3)cnc12 [Example 2-135] | 9.6 nM | 50 to 500 nM | – | – |
| CC1CCC(Nc2cc(NCC3CCOCC3)c3ncc(-c4ccc(C(=O)NC5CC5)cc4)n3n2)CC1 (stereo not shown) [Example 2-19] | 6 nM | 50 to 500 nM | – | – |
| O=C(NC1CC1)c1ccc(-c2cnc3c(NCC4CCOCC4)cc(N4CCOC(CO)C4)nn23)cc1 (stereo not shown) [Example 2-49] | 17.8 nM | 500 to 1000 nM | – | – |
